Experimental data taken from publication PMC10141580, “Cyclic Dichalcogenides Extend the Reach of Bioreductive Prodrugs to Harness Thiol/Disulfide Oxidoreductases: Applications to seco-Duocarmycins Targeting the Thioredoxin System” (ACS Central Science, 2023).
Like-named read-outs stand apart in the source and are kept apart here.

Test system: NCI-60 standardized human tumor cell line panel
Experiment: cells
Assay type: cell-based
Settings: for NCI-60 screening: Log(GI50): log10 of GI50 in M; for NCI-60 screening: Log(RedIndex): log10 reductive index vs P-CC60

Question: For `COc1cc2cc(C(=O)N3C[C@@H](CCl)c4c3cc(OC(=O)N(CCC(=O)N3CCN(C)CC3)[C@H]3CCSSC3)c3ccccc43)[nH]c2c(OC)c1OC` [P-SS60-CBI-TMI], which “NCI-60 screening: Log(GI50)” value (786-0 (RE) cell line) is on record?
Answer: Its value is -6.79.

Question: What about the “NCI-60 screening: Log(RedIndex)” value (786-0 (RE) cell line) of the same compound?
Answer: Its value is 1.02.

Question: And the GI50 (786-0 (RE) cell line, read-out: NCI-60 screening: Raw GI50)?
Answer: Its GI50 is 160 nM.

Question: What about the GI50 (786-0, read-out: GI50) of the same compound?
Answer: The GI50 was 160 nM.

Question: What about the “NCI-60 screening: Log(GI50)” value (A498 (RE) cell line) of the same compound?
Answer: The value was -6.6.

Question: What about the “NCI-60 screening: Log(RedIndex)” value (A498 (RE) cell line) of the same compound?
Answer: Its value is 1.04.

Question: What about the GI50 (A498 (RE) cell line, read-out: NCI-60 screening: Raw GI50) of the same compound?
Answer: Its GI50 is 250 nM.

Question: And the GI50 (A498, read-out: GI50)?
Answer: The GI50 was 250 nM.

Question: And the GI50 (A549/ATCC, read-out: GI50)?
Answer: The GI50 was 150 nM.

Question: What about the “NCI-60 screening: Log(GI50)” value (ACHN (RE) cell line) of the same compound?
Answer: The value was -7.25.

Question: And the “NCI-60 screening: Log(RedIndex)” value (ACHN (RE) cell line)?
Answer: The value was 0.94.

Question: What about the GI50 (ACHN (RE) cell line, read-out: NCI-60 screening: Raw GI50) of the same compound?
Answer: The GI50 was 56 nM.

Question: What about the GI50 (ACHN, read-out: GI50) of the same compound?
Answer: Its GI50 is 56 nM.

Question: What about the GI50 (BT-549, read-out: GI50) of the same compound?
Answer: The GI50 was 230 nM.

Question: And the “NCI-60 screening: Log(GI50)” value (CAKI-1 (RE) cell line)?
Answer: Its value is -6.57.

Question: What about the “NCI-60 screening: Log(RedIndex)” value (CAKI-1 (RE) cell line) of the same compound?
Answer: The value was 0.74.

Question: And the GI50 (CAKI-1 (RE) cell line, read-out: NCI-60 screening: Raw GI50)?
Answer: Its GI50 is 270 nM.

Question: And the GI50 (CAKI-1, read-out: GI50)?
Answer: The GI50 was 270 nM.

Question: What about the GI50 (CCRF-CEM, read-out: GI50) of the same compound?
Answer: Its GI50 is 220 nM.

Question: And the GI50 (COLO 205, read-out: GI50)?
Answer: The GI50 was 340 nM.

Question: And the “NCI-60 screening: Log(GI50)” value (DU-145 (PR) cell line)?
Answer: Its value is -7.23.

Question: And the “NCI-60 screening: Log(RedIndex)” value (DU-145 (PR) cell line)?
Answer: Its value is 0.89.

Question: What about the GI50 (DU-145, read-out: GI50) of the same compound?
Answer: The GI50 was 59 nM.

Question: What about the GI50 (EKVX, read-out: GI50) of the same compound?
Answer: Its GI50 is 320 nM.

Question: And the GI50 (HCC-2998, read-out: GI50)?
Answer: The GI50 was 160 nM.

Question: And the GI50 (HCT-15, read-out: GI50)?
Answer: The GI50 was 260 nM.

Question: And the GI50 (HCT-116, read-out: GI50)?
Answer: The GI50 was 160 nM.

Question: And the GI50 (HL-60(TB), read-out: GI50)?
Answer: The GI50 was 120 nM.

Question: What about the GI50 (HOP-62, read-out: GI50) of the same compound?
Answer: Its GI50 is 110 nM.

Question: What about the GI50 (HOP-92, read-out: GI50) of the same compound?
Answer: The GI50 was 350 nM.

Question: What about the GI50 (HT29, read-out: GI50) of the same compound?
Answer: Its GI50 is 270 nM.

Question: What about the “NCI-60 screening: Log(GI50)” value (IGROV1 (OV) cell line) of the same compound?
Answer: Its value is -6.3.

Question: And the “NCI-60 screening: Log(RedIndex)” value (IGROV1 (OV) cell line)?
Answer: The value was 0.66.

Question: And the GI50 (IGROV1, read-out: GI50)?
Answer: Its GI50 is 500 nM.

Question: What about the GI50 (K-562, read-out: GI50) of the same compound?
Answer: Its GI50 is 160 nM.

Question: And the GI50 (KM12, read-out: GI50)?
Answer: The GI50 was 270 nM.

Question: What about the GI50 (LOX IMVI, read-out: GI50) of the same compound?
Answer: Its GI50 is 210 nM.

Question: And the GI50 (M14, read-out: GI50)?
Answer: Its GI50 is 190 nM.

Question: And the GI50 (MALME-3M, read-out: GI50)?
Answer: The GI50 was 280 nM.

Question: And the GI50 (MCF7, read-out: GI50)?
Answer: Its GI50 is 35 nM.

Question: And the GI50 (MDA-MB-435, read-out: GI50)?
Answer: The GI50 was 210 nM.

Question: What about the GI50 (MDA-MB-468, read-out: GI50) of the same compound?
Answer: Its GI50 is 170 nM.

Question: And the GI50 (MOLT-4, read-out: GI50)?
Answer: The GI50 was 90 nM.

Question: And the “GI50/IC50, mean” value (NCI-60 vs ProliFiler, 19 overlapping cell lines)?
Answer: The value was 4.0.

Question: What about the GI50 (NCI-H23, read-out: GI50) of the same compound?
Answer: The GI50 was 55 nM.

Question: What about the GI50 (NCI-H226, read-out: GI50) of the same compound?
Answer: The GI50 was 430 nM.

Question: And the “NCI-60 screening: Log(GI50)” value (NCI-H460 (LC) cell line)?
Answer: The value was -7.25.

Question: What about the “NCI-60 screening: Log(RedIndex)” value (NCI-H460 (LC) cell line) of the same compound?
Answer: Its value is 0.96.

Question: What about the GI50 (NCI-H460 (LC) cell line, read-out: NCI-60 screening: Raw GI50) of the same compound?
Answer: The GI50 was 56 nM.

Question: And the GI50 (NCI-H460, read-out: GI50)?
Answer: The GI50 was 56 nM.

Question: And the “NCI-60 screening: Log(GI50)” value (NCI-H522 (LC) cell line)?
Answer: Its value is -6.58.

Question: And the “NCI-60 screening: Log(RedIndex)” value (NCI-H522 (LC) cell line)?
Answer: Its value is 0.81.

Question: What about the GI50 (NCI-H522 (LC) cell line, read-out: NCI-60 screening: Raw GI50) of the same compound?
Answer: Its GI50 is 260 nM.

Question: And the GI50 (NCI-H522, read-out: GI50)?
Answer: The GI50 was 260 nM.

Question: And the “NCI-60 screening: Log(GI50)” value (OVCAR-3 (OV) cell line)?
Answer: The value was -6.63.

Question: What about the “NCI-60 screening: Log(RedIndex)” value (OVCAR-3 (OV) cell line) of the same compound?
Answer: The value was 0.95.

Question: What about the GI50 (OVCAR-3, read-out: GI50) of the same compound?
Answer: Its GI50 is 240 nM.

Question: What about the “NCI-60 screening: Log(GI50)” value (OVCAR-4 (OV) cell line) of the same compound?
Answer: The value was -6.33.

Question: What about the “NCI-60 screening: Log(RedIndex)” value (OVCAR-4 (OV) cell line) of the same compound?
Answer: Its value is 0.7.

Question: And the GI50 (OVCAR-4, read-out: GI50)?
Answer: The GI50 was 460 nM.

Question: What about the “NCI-60 screening: Log(GI50)” value (OVCAR-5 (OV) cell line) of the same compound?
Answer: The value was -6.51.

Question: What about the “NCI-60 screening: Log(RedIndex)” value (OVCAR-5 (OV) cell line) of the same compound?
Answer: Its value is 1.22.

Question: And the GI50 (OVCAR-5, read-out: GI50)?
Answer: Its GI50 is 310 nM.

Question: What about the “NCI-60 screening: Log(GI50)” value (OVCAR-8 (OV) cell line) of the same compound?
Answer: The value was -6.73.

Question: And the “NCI-60 screening: Log(RedIndex)” value (OVCAR-8 (OV) cell line)?
Answer: Its value is 0.95.

Question: And the GI50 (OVCAR-8 (OV) cell line, read-out: NCI-60 screening: Raw GI50)?
Answer: Its GI50 is 190 nM.

Question: What about the GI50 (OVCAR-8, read-out: GI50) of the same compound?
Answer: Its GI50 is 190 nM.

Question: And the “NCI-60 screening: Log(GI50)” value (PC-3 (PR) cell line)?
Answer: Its value is -6.14.

Question: What about the “NCI-60 screening: Log(RedIndex)” value (PC-3 (PR) cell line) of the same compound?
Answer: The value was 0.64.

Question: What about the GI50 (PC-3, read-out: GI50) of the same compound?
Answer: Its GI50 is 720 nM.

Question: What about the GI50 (RPMI-8226, read-out: GI50) of the same compound?
Answer: The GI50 was 220 nM.

Question: What about the “NCI-60 screening: Log(GI50)” value (RXF 393 (RE) cell line) of the same compound?
Answer: The value was -6.83.

Question: And the “NCI-60 screening: Log(RedIndex)” value (RXF 393 (RE) cell line)?
Answer: The value was 0.85.

Question: What about the GI50 (RXF 393 (RE) cell line, read-out: NCI-60 screening: Raw GI50) of the same compound?
Answer: The GI50 was 150 nM.

Question: And the GI50 (RXF 393, read-out: GI50)?
Answer: The GI50 was 150 nM.

Question: And the GI50 (SF-268, read-out: GI50)?
Answer: Its GI50 is 190 nM.

Question: And the GI50 (SF-295, read-out: GI50)?
Answer: The GI50 was 140 nM.

Question: And the GI50 (SF-539, read-out: GI50)?
Answer: Its GI50 is 170 nM.

Question: What about the GI50 (SK-MEL-5, read-out: GI50) of the same compound?
Answer: The GI50 was 170 nM.

Question: And the GI50 (SK-MEL-28, read-out: GI50)?
Answer: The GI50 was 290 nM.

Question: What about the “NCI-60 screening: Log(GI50)” value (SK-OV-3 (OV) cell line) of the same compound?
Answer: Its value is -6.58.

Question: What about the “NCI-60 screening: Log(RedIndex)” value (SK-OV-3 (OV) cell line) of the same compound?
Answer: The value was 0.91.

Question: What about the GI50 (SK-OV-3 (OV) cell line, read-out: NCI-60 screening: Raw GI50) of the same compound?
Answer: Its GI50 is 260 nM.

Question: And the GI50 (SK-OV-3, read-out: GI50)?
Answer: The GI50 was 260 nM.

Question: And the “NCI-60 screening: Log(GI50)” value (SN12C (RE) cell line)?
Answer: The value was -6.54.

Question: And the “NCI-60 screening: Log(RedIndex)” value (SN12C (RE) cell line)?
Answer: The value was 0.62.

Question: And the GI50 (SN12C (RE) cell line, read-out: NCI-60 screening: Raw GI50)?
Answer: The GI50 was 290 nM.

Question: And the GI50 (SN12C, read-out: GI50)?
Answer: Its GI50 is 290 nM.

Question: And the GI50 (SNB-19, read-out: GI50)?
Answer: The GI50 was 250 nM.

Question: And the GI50 (SR, read-out: GI50)?
Answer: Its GI50 is 34 nM.

Question: And the GI50 (SW-620, read-out: GI50)?
Answer: Its GI50 is 220 nM.

Question: And the GI50 (T-47D, read-out: GI50)?
Answer: Its GI50 is 700 nM.

Question: And the “NCI-60 screening: Log(GI50)” value (TK-10 (RE) cell line)?
Answer: The value was -5.47.

Question: And the “NCI-60 screening: Log(RedIndex)” value (TK-10 (RE) cell line)?
Answer: Its value is -0.07.

Question: What about the GI50 (TK-10, read-out: GI50) of the same compound?
Answer: The GI50 was 3400 nM.
